This is an account of results in patent US6264916A, “N,N-dimethyldiatrizoic acid and its conjugates as hepatobiliary agents for x-ray CT imaging” (Bracco Research, USA, priority 2000, dated 2001).

The nature of this data set: Biodistribution studies in mice (radioiodinated compounds, % ID/g-tissue). Type of data set: in vivo. The settings on record: tracer level, but MDTA-Na 0.18M and MDTA-NMG 0.19M; for tissue uptake at 1 min / tissue uptake at 5 min / tissue uptake at 1 h: mouse, iv. The method, then:
All of the new analogs were radiolabeled in order to determine their physical and biological properties. The iodinated compounds were exchange-labeled by heating with Na^125 I in the presence of CuSO4 and Na2 S2 O5 in glacial acetic acid at 135-150° C. for 1 h, followed by HPLC purification using a nucleosil C18 column and CH3 CN--H2 O containing 0.1% TFA as an eluent. In some cases (e.g. the compound of Example 12) the radioiodination was carried out by heating with Na*I in HOAc--NaOAc (pH 4.6) at 100° C. for 15 min. In all cases radiolabeled compounds of acceptable radiochemical purity and specific activity were obtained.
The compound of formula I, N,N-dimethyl-diatrizoic acid, was similarly radiolabeled for biological studies.
a) For intravenous administration the preferred vehicle for the compounds of formula I, II and III is bovine serum albumin, however, other physiologically acceptable vehicles may also be used.
Biodistribution studies were conducted in mice and the results are given in Table I. X-Ray CT images of MDTA in mice and rats indicate that these hydrophobic diatrizoate analogs may be of promise for liver imaging.

Where [1] appears, read: blood, blood, 1', read-out: Biodistribution, Blood 1'.
[2] abbreviates: blood, blood, 5', read-out: Biodistribution, Blood 5'.
Setting [3] is: blood, blood, 60', read-out: Biodistribution, Blood 60'.
Where [4] appears, read: kidney, kidney, 1', read-out: Biodistribution, Kidney 1'.
The mark [5] stands for this setting: kidney, kidney, 5', read-out: Biodistribution, Kidney 5'.
Setting [6] is: kidney, kidney, 60', read-out: Biodistribution, Kidney 60'.
Where [7] appears, read: liver, liver, 1', read-out: Biodistribution, Liver 1'.
The mark [8] stands for this setting: liver, liver, 5', read-out: Biodistribution, Liver 5'.
[9] abbreviates: liver, liver, 60', read-out: Biodistribution, Liver 60'.
Where [10] appears, read: small/large intestine, small/large intestine, 1', read-out: Biodistribution, Sm/Lrg. Intestine 1'.
[11] abbreviates: small/large intestine, small/large intestine, 5', read-out: Biodistribution, Sm/Lrg. Intestine 5'.
The mark [12] stands for this setting: small/large intestine, small/large intestine, 60', read-out: Biodistribution, Sm/Lrg. Intestine 60'.

Read-outs that look alike come from different tables or passages of the source.

For `CC(=O)N(C)c1c(I)c(C(=O)Nc2ccc(CCCCCCCCCCC(=O)O)cc2)c(I)c(N(C)C(C)=O)c1I` [Example F11-P-MDTA, 4-[[[3,5-Bis(acetylmethylamino)-2,4,6-triiodophenyl]carbonyl]amino]benzeneundecanoic acid], the tissue uptake at 1 min reads like this: under setting [1], 9.14 %ID/g; under setting [4], 6.21 %ID/g; under setting [7], 57.9 %ID/g; under setting [10], 1.14 %ID/g. For the same molecule, the tissue uptake at 5 min is, setting by setting: under setting [2], 0.74 %ID/g; under setting [5], 3.63 %ID/g; under setting [8], 60.1 %ID/g; under setting [11], 3.06 %ID/g. Moreover, the tissue uptake at 1 h reads like this: under setting [3], 0.08 %ID/g; under setting [6], 0.1 %ID/g; under setting [9], 2.96 %ID/g; under setting [12], 38.2 %ID/g.
`CC(=O)N(C)c1c(I)c(C(=O)Nc2ccc(CC(=O)O)cc2)c(I)c(N(C)C(C)=O)c1I` [Example F2-P-MDTA, 4-(((3,5-Bis(Acetylmethylamino)-2,4,6-triiodophenyl)carbonyl)amino)-benzeneacetic acid]: the tissue uptake at 1 min is, setting by setting: under setting [1], 4.83 %ID/g; under setting [4], 11.5 %ID/g; under setting [7], 17.9 %ID/g; under setting [10], 2.47 %ID/g. Further, the tissue uptake at 5 min reads like this: under setting [2], 0.96 %ID/g; under setting [5], 5.83 %ID/g; under setting [8], 12.9 %ID/g; under setting [11], 9.54 %ID/g. Moreover, the tissue uptake at 1 h came to 0.04 %ID/g under setting [3], 0.33 %ID/g under setting [6], 2.25 %ID/g under setting [9] and 25.4 %ID/g under setting [12].
Take `CC(=O)N(C)c1c(I)c(C(=O)NCCCCCCC(=O)O)c(I)c(N(C)C(C)=O)c1I` [Example F7-DP-MDTA]: the tissue uptake at 1 min reads like this: under setting [1], 2.44 %ID/g; under setting [4], 9.5 %ID/g; under setting [7], 17.1 %ID/g; under setting [10], 4.92 %ID/g. Also, the tissue uptake at 5 min under setting [2] is 0.57 %ID/g, the tissue uptake at 5 min under setting [5] turned out to be 8.33 %ID/g, the tissue uptake at 5 min under setting [8] was found to be 9.81 %ID/g and the tissue uptake at 5 min under setting [11] turned out to be 14.5 %ID/g. Also, the tissue uptake at 1 h runs as follows: under setting [3], 0.05 %ID/g; under setting [6], 0.16 %ID/g; under setting [9], 0.77 %ID/g; under setting [12], 22.2 %ID/g.
As to `CC(=O)N(C)c1c(I)c(C(=O)NCCCCCCCCCCCC(=O)O)c(I)c(N(C)C(C)=O)c1I` [Example F12-DP-MDTA], the tissue uptake at 1 min by setting is: under setting [1], 2.38 %ID/g; under setting [4], 9.89 %ID/g; under setting [7], 28.9 %ID/g; under setting [10], 2.28 %ID/g. In addition, the tissue uptake at 5 min was found to be 0.39 %ID/g under setting [2], 5.72 %ID/g under setting [5], 16.6 %ID/g under setting [8] and 11.6 %ID/g under setting [11]. The tissue uptake at 1 h was found to be 0.04 %ID/g under setting [3], 0.07 %ID/g under setting [6], 2.17 %ID/g under setting [9] and 28 %ID/g under setting [12].
Consider `CC(=O)N(C)c1c(I)c(C(=O)Nc2ccc(CCCCCCCCCCCCCCCCCCC(=O)O)cc2)c(I)c(N(C)C(C)=O)c1I` [Example F19-P-MDTA], for which the tissue uptake at 1 min was determined as 36.7 %ID/g under setting [1], 5.56 %ID/g under setting [4], 17.2 %ID/g under setting [7] and 1.05 %ID/g under setting [10]. For the same molecule, the tissue uptake at 5 min under setting [2] came out at 13.2 %ID/g, the tissue uptake at 5 min under setting [5] is 5.45 %ID/g, the tissue uptake at 5 min under setting [8] came out at 24.7 %ID/g and the tissue uptake at 5 min under setting [11] is 2.4 %ID/g. Besides, the tissue uptake at 1 h by setting is: under setting [3], 0.68 %ID/g; under setting [6], 2.67 %ID/g; under setting [9], 10.4 %ID/g; under setting [12], 14.4 %ID/g.
Take `CC(=O)N(C)c1c(I)c(C(=O)Nc2ccc(CCCCCCCCCCCCCCC(=O)O)cc2)c(I)c(N(C)C(C)=O)c1I` [Example F15-P-MDTA, 4-[[[3,5-Bis(acetylmethylamino)-2,4,6-triiodophenyl]carbonyl]amino]benzenepentadecanoic acid]: the tissue uptake at 1 min runs as follows: under setting [1], 24.6 %ID/g; under setting [4], 8.28 %ID/g; under setting [7], 46.4 %ID/g; under setting [10], 2.13 %ID/g. The tissue uptake at 5 min runs as follows: under setting [2], 4.28 %ID/g; under setting [5], 5.1 %ID/g; under setting [8], 76.3 %ID/g; under setting [11], 4.85 %ID/g. Moreover, the tissue uptake at 1 h by setting is: under setting [3], 0.12 %ID/g; under setting [6], 0.34 %ID/g; under setting [9], 6.18 %ID/g; under setting [12], 43.7 %ID/g.
With `CC(=O)N(C)c1c(I)c(C(=O)O)c(I)c(N(C)C(C)=O)c1I` [MDTA, 3,5-Bis-(Acetylmethylamino)-2,4,6-triiodobenzoic acid], the “Biodistribution, Blood 5'” value (blood, 5', 5 min) is reported as 1.21 % ID/g-tissue. In addition, the “Biodistribution, Blood 60'” value (blood, 60') came to 0.00 % ID/g-tissue. For the same molecule, the “Biodistribution, Kidney 1'” value (kidney, 1', 1 min) is given as 37.57 % ID/g-tissue. Moreover, the “Biodistribution, Kidney 60'” value (kidney, 60', 60 min) is given as 0.18 % ID/g-tissue. Further, the “Biodistribution, Liver 60'” value (liver, 60', 60 min) came to 0.85 % ID/g-tissue. The tissue uptake at 1 min by setting is: under setting [1], 4.56 %ID/g; under setting [7], 15.8 %ID/g; under setting [10], 1.5 %ID/g. For the same molecule, the tissue uptake at 5 min under setting [5] is 21.5 %ID/g, the tissue uptake at 5 min under setting [8] amounted to 15.4 %ID/g and the tissue uptake at 5 min under setting [11] was 4.55 %ID/g. In addition, under setting [12], the tissue uptake at 1 h was determined as 13.3 %ID/g.
For the molecule “9(10)-N-(4-(((3,5-Bis-(acetylmethylamino)-2,4,6-triiodophenyl)carbonyl)amino)benzoyl)amino-octadecanoic acid [9/10-F-18P-MDTA]”, the “Biodistribution, Blood 1'” value (blood, 1', 1 min) was determined as 6.16 % ID/g-tissue. For the same molecule, the “Biodistribution, Blood 5'” value (blood, 5', 5 min) was determined as 0.46 % ID/g-tissue. The “Biodistribution, Blood 60'” value (blood, 60', 60 min) is recorded as 0.26 % ID/g-tissue. Besides, the “Biodistribution, Kidney 1'” value (kidney, 1', 1 min) turned out to be 3.32 % ID/g-tissue. Besides, the “Biodistribution, Kidney 5'” value (kidney, 5', 5 min) stood at 2.09 % ID/g-tissue. Further, the “Biodistribution, Kidney 60'” value (kidney, 60', 60 min) was determined as 0.39 % ID/g-tissue. Besides, the “Biodistribution, Liver 1'” value (liver, 1', 1 min) was 30.29 % ID/g-tissue. The “Biodistribution, Liver 5'” value (liver, 5', 5 min) turned out to be 32.33 % ID/g-tissue. Also, the “Biodistribution, Liver 60'” value (liver, 60', 60 min) was 3.16 % ID/g-tissue. The “Biodistribution, Sm/Lrg. Intestine 1'” value (small/large intestine, 1', 1 min) came out at 0.51 % ID/g-tissue. Further, the “Biodistribution, Sm/Lrg. Intestine 5'” value (small/large intestine, 5', 5 min) is recorded as 2.71 % ID/g-tissue. The “Biodistribution, Sm/Lrg. Intestine 60'” value (small/large intestine, 60', 60 min) amounted to 20.21 % ID/g-tissue.
Take `CC(=O)N(C)c1c(I)c(C(=O)Nc2ccc(CCCCCCC(=O)O)cc2)c(I)c(N(C)C(C)=O)c1I` [Example F7-P-MDTA, 4-[[[3,5-Bis(acetylmethylamino)-2,4,6-triiodophenyl]carbonyl]amino]benzeneheptanoic acid]: the tissue uptake at 1 min is 2.38 %ID/g under setting [1], 4.28 %ID/g under setting [4], 39.5 %ID/g under setting [7] and 1.38 %ID/g under setting [10]. The tissue uptake at 5 min reads like this: under setting [2], 0.57 %ID/g; under setting [5], 2.94 %ID/g; under setting [8], 37.2 %ID/g; under setting [11], 6.2 %ID/g. For the same molecule, the tissue uptake at 1 h under setting [3] amounted to 0.15 %ID/g, the tissue uptake at 1 h under setting [6] came to 0.3 %ID/g, the tissue uptake at 1 h under setting [9] amounted to 5.02 %ID/g and the tissue uptake at 1 h under setting [12] was found to be 26.8 %ID/g.
